{
  "source": "patent US5994629A",
  "about": "“Positive selection” (priority 1991, dated 1999); for Histological GUS reaction: key: + Blue reaction; (+) Low frequency of GUS activity (faint blue reaction); 0 No reaction; n Not determined",
  "key": {"[1]": {"biological_target": "β-glucuronidase from E. coli (Escherichia coli, UniProt P05804)", "sequence (P05804 whole entry, looked up)": "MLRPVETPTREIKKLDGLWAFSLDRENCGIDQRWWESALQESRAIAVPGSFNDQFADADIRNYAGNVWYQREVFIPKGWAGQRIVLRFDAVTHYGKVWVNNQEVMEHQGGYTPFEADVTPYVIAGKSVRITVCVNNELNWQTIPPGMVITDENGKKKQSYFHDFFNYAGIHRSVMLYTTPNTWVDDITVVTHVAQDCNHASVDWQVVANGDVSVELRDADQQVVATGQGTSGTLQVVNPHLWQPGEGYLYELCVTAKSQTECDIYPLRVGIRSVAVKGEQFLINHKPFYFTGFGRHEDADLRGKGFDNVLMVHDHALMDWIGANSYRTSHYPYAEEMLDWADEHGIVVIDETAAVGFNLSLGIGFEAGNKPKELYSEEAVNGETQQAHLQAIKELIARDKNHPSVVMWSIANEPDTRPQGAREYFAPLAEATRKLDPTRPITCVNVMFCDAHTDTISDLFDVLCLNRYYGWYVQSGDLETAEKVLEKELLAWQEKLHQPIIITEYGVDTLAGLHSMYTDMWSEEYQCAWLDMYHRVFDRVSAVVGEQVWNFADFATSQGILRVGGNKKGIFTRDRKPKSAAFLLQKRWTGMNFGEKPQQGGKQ", "experiment": "Hydrolysis by β-glucuronidase (GUS), HPLC/TLC", "format": "biochemical", "details": "for Hydrolysis by β-glucuronidase (GUS), result in words: 50 mM sodium phosphate buffer pH 7.0, 37° C., HPLC/TLC", "experimental": "[…] […] This confirms the identity of the product as a conjugate of BA and β-D-glucuronic acid.\n[…] The presence of hydrolysis products is then determined using HPLC and TLC."}, "[2]": {"tested_on": "leaf discs of tobacco without (GUS-) introduced β-glucuronidase genes", "format": "cell-based, Nicotiana tabacum 'Wisconsin 38'", "details": "test compounds at several concentrations up to 250 μM in MSO"}, "[3]": {"tested_on": "leaf discs of tobacco with (GUS+) introduced β-glucuronidase genes", "format": "cell-based, Nicotiana tabacum 'Wisconsin 38'", "details": "test compounds at several concentrations up to 250 μM in MSO"}, "[4]": {"tested_on": "sugar beet cotyledon explants", "experiment": "Transformation of sugar beet, positive and negative selection", "format": "cell-based", "details": "400 mg/l kanamycin sulphate + 1 mg/l BAP (100 explants) or + 15 mg/l BA3GN (177 explants)", "text": "Seeds were germinated for 4 days in darkness on a substrate containing 0.7 g/l of agarose and 2 g/l of sucrose. The seedlings were then transferred to a Nunc container containing 1/2×MSO substrate and cultured for 3 days in the light. The cotyledons were removed from the seedlings, and the cotyledon explants were then brushed on the petiole with a small brush containing an Agrobacterium suspension, the Agrobacterium containing 35S-NPTII and 35S-GUS (OD 660=0.1). The cotelydons were then co-cultivatedfor 4 days on a substrate containing 1/10 MSO substrate and 200 μM acetosyringone. […] The regenerated shoots were then transferred to containers containing the same substrate. After 52 days on this substrate all the shoots were transferred to MSO substrate supplemented with 800 mg/l carbenicillin, 25 mg/l vancomycin and 0.1 mg/l BA. After 14 days GUS assays as described in Example 3 were performed on the selected plant material."}, "[5]": {"tested_on": "hypocotyl explants of winter oil seed rape V486", "experiment": "Transgenic callus from oilseed rape, winter type V486", "format": "cell-based", "details": "50 mg/l kanamycin sulphate", "experimental": "(§1) Experiments were performed as described in Example 11, although with certain modifications. The plant species used were the very recalcitrant breeding lines \"V486\" of winter oil seed rape and \"S487\" of summer oilseed rape. Seeds were sterilized and germinated as described in Example 16. Hypocotyls were used as explants and were inoculated and co-cultured as described in Example 11. After co-cultivation the explants were transferred to MSO substrate containing 0.1 mg/l naphthylacetic acid, 0.01 mg/l gibberellic acid (GA3), 500 mg/l carbenicillin, 50 mg/l kanamycin sulphate and 6.0 g/l agarose. The substrate contained in addition either 1 mg/l BA or 3.75, 7.5 or 15.0 mg/l BA3GN sodium salt. The pH was adjusted to 5.8. The Agrobacterium used contained in its T-DNA a GUS gene and a neomycinphosphotransferase II gene driven by 35S promoters. GUS assays were performed after 8 weeks and callus showing an intense blue staining in most of the callus cells was registered as being GUS."}, "[6]": {"tested_on": "hypocotyl explants of oilseed rape", "experiment": "Transgenic callus from oilseed rape, second section of Table 19", "format": "cell-based", "experimental": "as §1"}, "[7]": {"tested_on": "tobacco leaf disc containing an introduced β-glucuronidase gene", "experiment": "Shoot regeneration with sterol glucuronides on tridemorph substrate", "format": "cell-based", "details": "sitosteryl glucuronide 12.5 mg/l and/or cholesteryl glucuronide 50 mg/l; tridemorph 0.1 mM and BA3GN sodium salt (5 mM); 30 days"}, "Wild type explants": {"tested_on": "Wild type explants", "experiment": "Regenerated shoots selected by compounds in addition to mannose, wild type", "format": "cell-based", "details": "genotype Wild type"}, "[8]": {"tested_on": "explants with the mannose 6-phosphate isomerase gene from E. coli", "experiment": "Regenerated shoots selected by compounds in addition to mannose, M-6-P-isomerase", "format": "cell-based", "details": "genotype M-6-P-isomerase"}, "[9]": {"biological_target": "T1, GUS activity in plant tissue (Escherichia coli, UniProt P05804)", "T1 construct": "from tissue; host or cells: leaves of a number of plant species", "T1 sequence (P05804 whole entry)": "as the sequence (P05804 whole entry, looked up) above", "experiment": "Histological GUS reaction (X-gluc) in plant species with saccharo 1,4-lactone", "format": "cell-based", "details": "saccharo 1,4-lactone 10 mM, pH 3-8, transgenic (1), GUS gene from E. coli"}, "[10]": {"tested_on": "GUS activity in plant tissue", "experiment": "Histological GUS reaction (X-gluc) in plant species with saccharo 1,4-lactone", "format": "cell-based", "details": "saccharo 1,4-lactone 10 mM, pH 3-8"}},
  "data": [
    {"smiles": "O=C([O-])[C@H]1O[C@@H](n2cnc(NCc3ccccc3)c3ncnc2-3)[C@H](O)[C@@H](O)[C@@H]1O.[Na+]", "values": [
      {"measurement": "Hydrolysis by β-glucuronidase (GUS), result in words", "setting": "[1]", "value": "virtually complete removal"},
      {"measurement": "removal of the glucuronide by GUS", "setting": "[1]; 2500 Fishman units, 12 hours, 37° C., HPLC and TLC", "value": "> 99", "unit": "%"},
      {"measurement": "Shoot formation, GUS-", "setting": "[2]", "value": "+ (\"+\" means shoot formation at concentrations below 250 μM)"},
      {"measurement": "Shoot formation, GUS+", "setting": "[3]", "value": "+ (\"+\" means shoot formation at concentrations below 250 μM)"},
      {"measurement": "GUS+ Shoots", "setting": "[4]", "value": 4},
      {"measurement": "GUS+ shoots (%)", "setting": "[4]", "value": 2.3, "unit": "%"},
      {"measurement": "GUS+ callus per callus", "setting": "[5]; BA3GN 3.75 mg/l", "value": 7.1, "unit": "%"},
      {"measurement": "GUS+ callus per explant", "setting": "[5]; BA3GN 3.75 mg/l", "value": 1.4, "unit": "%"},
      {"measurement": "Explants with callus", "setting": "[5]; BA3GN 3.75 mg/l, 8 weeks", "value": 19.0, "unit": "%"},
      {"measurement": "Explants with callus", "setting": "[5]; BA3GN 7.5 mg/l", "value": 23.0, "unit": "%"},
      {"measurement": "GUS+ callus per callus", "setting": "[5]; BA3GN 7.5 mg/l", "value": 5.9, "unit": "%"},
      {"measurement": "GUS+ callus per explant", "setting": "[5]; BA3GN 7.5 mg/l", "value": 1.4, "unit": "%"},
      {"measurement": "Explants with callus", "setting": "[5]; BA3GN 15.00 mg/l", "value": 30.6, "unit": "%"},
      {"measurement": "GUS+ callus per callus", "setting": "[5]; BA3GN 15.00 mg/l", "value": 7.5, "unit": "%"},
      {"measurement": "GUS+ callus per explant", "setting": "[5]; BA3GN 15.00 mg/l", "value": 2.3, "unit": "%"},
      {"measurement": "GUS+ callus per callus", "setting": "[6]; BA3GN 3.75 mg/l", "value": 33.3, "unit": "%"},
      {"measurement": "GUS+ callus per explant", "setting": "[6]; BA3GN 3.75 mg/l", "value": 1.7, "unit": "%"},
      {"measurement": "Explants with callus", "setting": "[6]; BA3GN 3.75 mg/l, 50 mg/l kanamycin sulphate", "value": 5.2, "unit": "%"},
      {"measurement": "Explants with callus", "setting": "[6]; BA3GN 7.5 mg/l", "value": 9.2, "unit": "%"},
      {"measurement": "GUS+ callus per callus", "setting": "[6]; BA3GN 7.5 mg/l", "value": 25.0, "unit": "%"},
      {"measurement": "GUS+ callus per explant", "setting": "[6]; BA3GN 7.5 mg/l", "value": 2.3, "unit": "%"},
      {"measurement": "Explants with callus", "setting": "[6]; BA3GN 15.00 mg/l", "value": 6.3, "unit": "%"},
      {"measurement": "GUS+ callus per callus", "setting": "[6]; BA3GN 15.00 mg/l", "value": 14.2, "unit": "%"},
      {"measurement": "GUS+ callus per explant", "setting": "[6]; BA3GN 15.00 mg/l", "value": 0.9, "unit": "%"}
    ]},
    {"smiles": "O=C([O-])[C@H]1O[C@@H](n2cnc3c(NCc4ccccc4)ncnc32)[C@H](O)[C@@H](O)[C@@H]1O.[Na+]", "note": "[BA9GN sodium salt, 9-β-D-glucopyranuronosyl-6-benzylaminopurine, sodium salt]", "values": [
      {"measurement": "Hydrolysis by β-glucuronidase (GUS), result in words", "setting": "[1]", "value": "no detectable production of BA"},
      {"measurement": "production of BA after incubation with β-glucuronidase", "setting": "[1]; 18 hours at 37° C.", "value": "< 1", "unit": "%"},
      {"measurement": "Shoot formation, GUS-", "setting": "[2]", "value": "- (\"-\" means no shoot formation at concentrations below 250 μM)"},
      {"measurement": "Shoot formation, GUS+", "setting": "[3]", "value": "- (\"-\" means no shoot formation at concentrations below 250 μM)"},
      {"measurement": "acid hydrolysis", "setting": "Chemical stability; 1 mg/ml, 1M hydrochloric acid at 100° C. overnight, TLC", "value": "acid-labile"}
    ]},
    {"smiles": "c1ccc(CNc2ncnc3nc[nH]c23)cc1", "note": "[BA, N^6 -benzyladenine]", "values": [
      {"measurement": "Shoot formation, GUS-", "setting": "[2]", "value": "+ (\"+\" means shoot formation at concentrations below 250 μM)"},
      {"measurement": "Shoot formation, GUS+", "setting": "[3]", "value": "+ (\"+\" means shoot formation at concentrations below 250 μM)"},
      {"measurement": "GUS+ Shoots", "setting": "[4]", "value": 0},
      {"measurement": "GUS+ shoots (%)", "setting": "[4]", "value": 0, "unit": "%"},
      {"measurement": "Explants with callus", "setting": "[5]; BA 1 mg/l", "value": 0, "unit": "%"},
      {"measurement": "GUS+ callus per callus", "setting": "[5]; BA 1 mg/l", "value": 0, "unit": "%"},
      {"measurement": "GUS+ callus per explant", "setting": "[5]; BA 1 mg/l", "value": 0, "unit": "%"},
      {"measurement": "Explants with callus", "setting": "[6]; BA 1 mg/l", "value": 0, "unit": "%"},
      {"measurement": "GUS+ callus per callus", "setting": "[6]; BA 1 mg/l", "value": 0, "unit": "%"},
      {"measurement": "GUS+ callus per explant", "setting": "[6]; BA 1 mg/l", "value": 0, "unit": "%"}
    ]},
    {"smiles": "CC(C)CCC[C@@H](C)[C@H]1CC[C@H]2[C@@H]3CC=C4C[C@@H](O[C@@H]5O[C@H](C(=O)O)[C@@H](O)[C@H](O)[C@H]5O)CC[C@]4(C)[C@H]3CC[C@]12C", "note": "[Choesteryl-β-D-glucuronide, cholesteryl-β-D-glucuronide]", "values": [
      {"measurement": "Shoots per leaf disc", "setting": "[7]", "value": 0.3}
    ]},
    {"smiles": "N[C@@H]1C(O)O[C@H](CO)[C@@H](O)[C@@H]1O", "note": "(stereo partly drawn) [D-mannosamine]", "values": [
      {"measurement": "Number of regenerated shoots per explant", "setting": "Wild type explants", "value": 0},
      {"measurement": "Number of regenerated shoots per explant", "setting": "[8]", "value": 0.8}
    ]},
    {"smiles": "O=P(O)(O)OC[C@H]1OC(O)[C@@H](O)[C@@H](O)[C@@H]1O", "note": "(stereo partly drawn) [D-mannose-6-phosphate]", "values": [
      {"measurement": "Number of regenerated shoots per explant", "setting": "Wild type explants", "value": 0},
      {"measurement": "Number of regenerated shoots per explant", "setting": "[8]", "value": 0.7}
    ]},
    {"smiles": "O=C(O)[C@@H](O)[C@H]1OC(=O)[C@H](O)[C@H]1O", "note": "[Saccharo 1,4-lactone]", "values": [
      {"measurement": "Histological GUS reaction", "setting": "[9]; Sugar beet", "value": "(+)"},
      {"measurement": "Histological GUS reaction", "setting": "[9]; Tobacco", "value": 0},
      {"measurement": "Histological GUS reaction", "setting": "[10]; Oilseed rape", "value": 0},
      {"measurement": "Histological GUS reaction", "setting": "[10]; Oxalis, stem or petiole", "value": 0},
      {"measurement": "Histological GUS reaction", "setting": "[10]; Pea, stem or petiole", "value": 0},
      {"measurement": "Histological GUS reaction", "setting": "[10]; Rhubarb, stem or petiole", "value": 0},
      {"measurement": "Histological GUS reaction", "setting": "[10]; Sitka spruce, embryogenic callus", "value": 0},
      {"measurement": "Histological GUS reaction", "setting": "[10]; Sugar beet, transgenic (2), NPT only", "value": 0},
      {"measurement": "Histological GUS reaction", "setting": "[10]; Sugar beet, wild type", "value": 0},
      {"measurement": "Histological GUS reaction", "setting": "[10]; Tobacco", "value": 0},
      {"measurement": "Histological GUS reaction", "setting": "[10]; Tobacco, transgenic (2), NPT only", "value": 0},
      {"measurement": "Histological GUS reaction", "setting": "[10]; Wheat, albino", "value": 0},
      {"measurement": "stability at the pH of the substrate", "setting": "Chemical stability; equilibrium with saccharic acid", "value": "not a stable compound"}
    ]},
    {"smiles": "CC[C@H](CC[C@@H](C)[C@H]1CC[C@H]2[C@@H]3CC=C4C[C@@H](O[C@@H]5O[C@H](C(=O)O)[C@@H](O)[C@H](O)[C@H]5O)CC[C@]4(C)[C@H]3CC[C@]12C)C(C)C", "note": "[Sitosteryl-β-D-glucuronide, β-sitosteryl-β-D-glucuronidide]", "values": [
      {"measurement": "Shoots per leaf disc", "setting": "[7]", "value": 2.8}
    ]}
  ]
}
